Experimental data reported in US10112941B2, “Tricyclic compounds as anticancer agents” (BRISTOL-MYERS SQUIBB COMPANY, priority 2013, dated 2018).

Target: BRD4 (Homo sapiens, UniProt O60885)
Assay: Time Resolved Fluorescence Resonance Energy Transfer (TR-FRET) binding assay, BRD4
Conditions: one of the FRET assays described; read-out: FRET BRD4 IC50

Structure (SMILES)	IC50 [nM]
Cc1nnn(C)c1-c1cnc2c3ccc(C(C)(C)O)cc3n(C(c3ccc(F)cc3)C3CCC3)c2c1 (single isomer, unassigned) [Example 251, 2-{5-[Cyclobutyl(4-fluorophenyl)methyl]-3-(dimethyl-1H-1,2,3-triazol-5-yl)-5H-pyrido[3,2-b]indol-7-yl}propan-2-ol]	< 5
Cc1nnn(C)c1-c1cnc2c3ccc(C(C)(C)O)cc3n(C(CCC(F)(F)F)c3ccccn3)c2c1 (single isomer, unassigned) [Example 253, 2-[3-(Dimethyl-1H-1,2,3-triazol-5-yl)-5-[4,4,4-trifluoro-1-(pyridin-2-yl)butyl]-5H-pyrido[3,2-b]indol-7-yl]propan-2-ol]	< 5
Cc1nnn(C)c1-c1cnc2c3ccc(C(C)(C)O)cc3n(C(CCC(F)(F)F)c3ccccn3)c2c1 (single isomer, unassigned) [Example 254, 2-[3-(Dimethyl-1H-1,2,3-triazol-5-yl)-5-[4,4,4-trifluoro-1-(pyridin-2-yl)butyl]-5H-pyrido[3,2-b]indol-7-yl]propan-2-ol]	< 5
Cc1nnn(C)c1-c1cnc2c3c(S(C)(=O)=O)cccc3n(C(CCC(F)(F)F)c3ccccn3)c2c1 (single isomer, unassigned) [Example 258, 2-{1-[3-(Dimethyl-1H-1,2,3-triazol-5-yl)-9-methanesulfonyl-5H-pyrido[3,2-b]indol-5-yl]-4,4,4-trifluorobutyl}pyridine]	< 5
Cc1cc(C(C2CCOCC2)n2c3cc(C(C)(C)O)ccc3c3ncc(-c4c(C)nnn4C)cc32)no1 (single isomer, unassigned) [Example 286, 2-[3-(Dimethyl-1H-1,2,3-triazol-5-yl)-5-[(5-methyl-1,2-oxazol-3-yl)(oxan-4-yl)methyl]-5H-pyrido[3,2-b]indol-7-yl]propan-2-ol]	< 5
Cc1cc(C(C2CCOCC2)n2c3cc(C(C)(C)O)ccc3c3ncc(-c4c(C)nnn4C)cc32)no1 (single isomer, unassigned) [Example 287, 2-[3-(Dimethyl-1H-1,2,3-triazol-5-yl)-5-[(5-methyl-1,2-oxazol-3-yl)(oxan-4-yl)methyl]-5H-pyrido[3,2-b]indol-7-yl]propan-2-ol]	< 25
Cc1nnn(C)c1-c1cnc2c3ccc(C(C)(C)O)c(F)c3n(C(c3ccncc3F)C3CCOCC3)c2c1 (single isomer, unassigned) [Example 288]	< 5
Cc1nnn(C)c1-c1cnc2c3ccc(C(C)(C)O)c(F)c3n(C(c3ccncc3F)C3CCOCC3)c2c1 (single isomer, unassigned) [Example 289]	< 5
Cc1cc(C(C2CCOCC2)n2c3cc(-c4c(C)nnn4C)cnc3c3ccc(C(C)(C)O)c(F)c32)no1 (single isomer, unassigned) [Example 290]	< 5
Cc1nnn(C)c1-c1cnc2c3ccc(C(C)(C)O)cc3n(C(c3ncccn3)C3CCOCC3)c2c1 (single isomer, unassigned) [Example 292]	< 5
Cc1nnn(C)c1-c1cnc2c3ccc(C(C)(C)O)cc3n(C(c3ncccc3F)C3CCOCC3)c2c1 (single isomer, unassigned) [Example 293]	< 5
Cc1nnn(C)c1-c1cnc2c3ccc(C(C)(C)O)cc3n(C(c3ncccc3F)C3CCOCC3)c2c1 (single isomer, unassigned) [Example 294]	< 5
Cc1cccc(C(C2CCOCC2)n2c3cc(C(C)(C)O)ccc3c3ncc(-c4c(C)nnn4C)cc32)n1 (single isomer, unassigned) [Example 295]	< 5
Cc1nnn(C)c1-c1cnc2c3ccc(C(C)(C)O)cc3n(C(c3cccnn3)C3CCOCC3)c2c1 (single isomer, unassigned) [Example 296]	< 5
Cc1nnn(C)c1-c1cnc2c3ccc(C(C)(C)O)cc3n(C(c3cc(Cl)ccn3)C3CCOCC3)c2c1 (single isomer, unassigned) [Example 297]	< 5
Cc1nnn(C)c1-c1cnc2c3ccc(C(C)(C)O)cc3n(C(c3cc(Cl)ccn3)C3CCOCC3)c2c1 (single isomer, unassigned) [Example 298]	< 25
Cc1noc(C(C2CCOCC2)n2c3cc(C(C)(C)O)ccc3c3ncc(-c4c(C)nnn4C)cc32)n1 (single isomer, unassigned) [Example 299]	< 5
Cc1noc(C(C2CCOCC2)n2c3cc(C(C)(C)O)ccc3c3ncc(-c4c(C)nnn4C)cc32)n1 (single isomer, unassigned) [Example 300]	< 25
Cc1cccnc1C(C1CCOCC1)n1c2cc(C(C)(C)O)ccc2c2ncc(-c3c(C)nnn3C)cc21 (single isomer, unassigned) [Example 301]	< 5
Cc1cccnc1C(C1CCOCC1)n1c2cc(C(C)(C)O)ccc2c2ncc(-c3c(C)nnn3C)cc21 (single isomer, unassigned) [Example 302]	< 5
Cc1nnn(C)c1-c1cnc2c3ccc(C(C)(C)O)cc3n(C(c3ncccc3Cl)C3CCOCC3)c2c1 (single isomer, unassigned) [Example 303]	< 5
Cc1nnn(C)c1-c1cnc2c3ccc(C(C)(C)O)cc3n(C(c3ncccc3Cl)C3CCOCC3)c2c1 (single isomer, unassigned) [Example 304]	< 5

Structure (SMILES)	IC50 [nM]
Cc1nnn(C)c1-c1cnc2c3ccc(C(C)(C)O)c(F)c3n(C(c3ncccc3F)C3CCOCC3)c2c1 (single isomer, unassigned) [Example 305]	< 5
Cc1cc(C(C2CCOCC2)n2c3cc(C(C)(C)O)ccc3c3ncc(-c4c(C)noc4C)cc32)no1 (single isomer, unassigned) [Example 306]	< 5
Cc1cc(C(C2CCOCC2)n2c3cc(C(C)(C)O)ccc3c3ncc(-c4c(C)noc4C)cc32)no1 (single isomer, unassigned) [Example 307]	< 25
[2H]C([2H])([2H])c1nnn(C)c1-c1cnc2c3ccc(C(C)(C)O)cc3n(C(c3ccncc3F)C3CCOCC3)c2c1 (single isomer, unassigned) [Example 310]	< 5
[2H]C([2H])([2H])c1nnn(C)c1-c1cnc2c3ccc(C(C)(C)O)cc3n(C(c3ccncc3F)C3CCOCC3)c2c1 (single isomer, unassigned) [Example 311]	< 5
[2H]C([2H])([2H])c1nnn(C)c1-c1cnc2c3c(OC)cc(C(C)(C)O)cc3n(C(c3cc(C)on3)C3CCOCC3)c2c1 (single isomer, unassigned) [Example 312]	< 5
[2H]C([2H])([2H])c1nnn(C)c1-c1cnc2c3cc(F)c(C(C)(C)O)cc3n(C(c3cc(C)on3)C3CCOCC3)c2c1 (single isomer, unassigned) [Example 313]	< 5
[2H]C([2H])([2H])c1nnn(C)c1-c1cnc2c3ccc(C(C)(C)O)c(F)c3n(C(c3cc(C)on3)C3CCOCC3)c2c1 (single isomer, unassigned) [Example 314]	< 5
[2H]C([2H])([2H])c1nnn(C)c1-c1cnc2c3ccc(C(C)(C)O)cc3n(C(c3ncccc3F)C3CCOCC3)c2c1 (single isomer, unassigned) [Example 315]	< 5
[2H]C([2H])([2H])c1nnn(C)c1-c1cnc2c3ccc(C(C)(C)O)cc3n(C(c3ncccc3F)C3CCOCC3)c2c1 (single isomer, unassigned) [Example 316]	< 5
[2H]C([2H])([2H])c1nnn(C)c1-c1cnc2c3ccc(C(C)(C)O)cc3n(C(c3ccc(F)cn3)C3CCOCC3)c2c1 (single isomer, unassigned) [Example 317]	< 5
[2H]C([2H])([2H])c1nnn(C)c1-c1cnc2c3ccc(C(C)(C)O)cc3n(C(c3ncccc3C(F)(F)F)C3CCOCC3)c2c1 (single isomer, unassigned) [Example 318]	< 5
[2H]C([2H])([2H])c1nnn(C)c1-c1cnc2c3ccc(C(C)(C)O)cc3n(C(c3ncccc3C(F)(F)F)C3CCOCC3)c2c1 (single isomer, unassigned) [Example 319]	< 5
[2H]C([2H])([2H])c1nnn(C)c1-c1cnc2c3ccc(C(C)(C)O)cc3n(C(c3ccc(Cl)cn3)C3CCOCC3)c2c1 (single isomer, unassigned) [Example 320]	< 5
[2H]C([2H])([2H])c1nnn(C)c1-c1cnc2c3ccc(C(C)(C)O)cc3n(C(c3ncccc3Cl)C3CCOCC3)c2c1 (single isomer, unassigned) [Example 321]	< 5
[2H]C([2H])([2H])c1nnn(C)c1-c1cnc2c3ccc(C(C)(C)O)cc3n(C(c3ncccc3Cl)C3CCOCC3)c2c1 (single isomer, unassigned) [Example 322]	< 5
[2H]C([2H])([2H])c1nnn(C)c1-c1cnc2c3ccc(C(C)(C)O)c(F)c3n(C(c3ccc(F)cn3)C3CCOCC3)c2c1 (single isomer, unassigned) [Example 323]	< 25
[2H]C([2H])([2H])c1nnn(C)c1-c1cnc2c3ccc(C(C)(C)O)c(F)c3n(C(c3ccc(F)cn3)C3CCOCC3)c2c1 (single isomer, unassigned) [Example 324]	< 25
[2H]C([2H])([2H])c1nnn(C)c1-c1cnc2c3cc(F)c(C(C)(C)O)cc3n(C(c3cc(OC)ccn3)C3CCOCC3)c2c1 (single isomer, unassigned) [Example 325]	< 5
[2H]C([2H])([2H])c1nnn(C)c1-c1cnc2c3cc(F)c(C(C)(C)O)cc3n(C(c3cc(OC)ccn3)C3CCOCC3)c2c1 (single isomer, unassigned) [Example 326]	< 25
Cc1cc(C(C2CCOCC2)n2c3cc(C(C)(C)O)ccc3c3ncc(-c4c(C)nnn4C)cc32)n(C)n1 (single isomer, unassigned) [Example 341, 2-[3-(Dimethyl-1H-1,2,3-triazol-5-yl)-5-[(1,3-dimethyl-1H-pyrazol-5-yl)(oxan-4-yl)methyl]-5H-pyrido[3,2-b]indol-7-yl]propan-2-ol]	< 5
Cc1cc(C(C2CCOCC2)n2c3cc(C(C)(C)O)ccc3c3ncc(-c4c(C)nnn4C)cc32)n(C)n1 (single isomer, unassigned) [Example 342, 2-[3-(Dimethyl-1H-1,2,3-triazol-5-yl)-5-[(1,3-dimethyl-1H-pyrazol-5-yl)(oxan-4-yl)methyl]-5H-pyrido[3,2-b]indol-7-yl]propan-2-ol]	< 25
